Reference: patent US20240158446A1, “CYCLIC COMPOUND HAVING SELECTIVE INHIBITORY ACTION ON KRAS OVER HRAS AND NRAS” (CHUGAI SEIYAKU KABUSHIKI KAISHA, priority 2021, published 2024)
Like-named read-outs stand apart in the source and are kept apart here.

What was measured:
[1] = tested on: human lung cancer strain NCI-H441;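 also: cell proliferation inhibition after four days measured by CellTiter-Glo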
[2] = target: GDP-bound NRAS wild-type protein (Homo sapiens, UniProt P01111); test: Binding to NRAS by surface plasmon resonance (SPR), Single Cycle Kinetics; details: for NRAS/KRAS (ratio of KD value for NRAS to KD value for KRAS): SPR, GDP-bound NRAS wild-type protein vs GDP-bound KRAS wild-type protein, KD ratio class
[3] = target: GDP-bound HRAS wild-type protein (Homo sapiens, UniProt P01112); test: Binding to HRAS by surface plasmon resonance (SPR), Single Cycle Kinetics; details: for HRAS/KRAS (ratio of KD value for HRAS to KD value for KRAS): SPR, GDP-bound HRAS wild-type protein vs GDP-bound KRAS wild-type protein, KD ratio class
[4] = target: GDP-bound KRAS wild-type protein (Homo sapiens, UniProt P01116); test: Binding to KRAS by surface plasmon resonance (SPR), Single Cycle Kinetics; details: 1:1 binding model, GDP-bound KRAS wild-type protein, read-out: KRAS KD
Sequence of GDP-bound KRAS wild-type protein (P01116 whole entry): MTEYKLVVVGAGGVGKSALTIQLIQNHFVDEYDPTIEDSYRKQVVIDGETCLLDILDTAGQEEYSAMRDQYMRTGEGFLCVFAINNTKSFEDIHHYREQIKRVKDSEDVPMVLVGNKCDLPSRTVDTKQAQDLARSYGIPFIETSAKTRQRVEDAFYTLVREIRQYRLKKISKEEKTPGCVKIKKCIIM

Sequence of GDP-bound NRAS wild-type protein (P01111 whole entry): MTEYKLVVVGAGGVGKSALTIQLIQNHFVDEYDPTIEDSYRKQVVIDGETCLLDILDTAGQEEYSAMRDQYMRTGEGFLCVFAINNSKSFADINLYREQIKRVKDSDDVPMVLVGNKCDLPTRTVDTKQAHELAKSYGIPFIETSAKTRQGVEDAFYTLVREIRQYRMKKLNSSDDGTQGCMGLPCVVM
Sequence of GDP-bound HRAS wild-type protein (P01112 whole entry): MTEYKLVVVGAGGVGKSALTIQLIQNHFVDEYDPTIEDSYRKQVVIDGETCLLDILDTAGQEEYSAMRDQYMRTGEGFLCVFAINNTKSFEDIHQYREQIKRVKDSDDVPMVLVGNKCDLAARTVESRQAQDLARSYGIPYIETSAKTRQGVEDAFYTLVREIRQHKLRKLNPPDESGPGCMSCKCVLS

SMILES	IC50 [1] [nM]	NRAS/KRAS (ratio of KD value for NRAS to KD value for KRAS) [2]	HRAS/KRAS (ratio of KD value for HRAS to KD value for KRAS) [3]	Kd ([4]; SPR, Single Cycle Kinetics) [nM]	NRAS/KRAS (ratio of KD value with respect to GDP-bound NRAS wild-type protein to KD value with respect to KRAS) ([2]; SPR KD ratio NRAS/KRAS, class symbols)	HRAS/KRAS (ratio of KD value with respect to GDP-bound HRAS wild-type protein to KD value with respect to KRAS) ([3]; SPR KD ratio HRAS/KRAS, class symbols)	Kd ([4]; SPR Single Cycle Kinetics) [nM]
CCO[C@@H]1C[C@H]2C(=O)NC3(CCC3)C(=O)N(C)[C@@H](C3CCCC3)C(=O)N(C)[C@H](C(=O)N(C)C)CC(=O)N(C)[C@@H](CC(C)C)C(=O)N[C@@H]([C@@H](C)CC)C(=O)N(C)CC(=O)N(C)[C@H]3C/C=C\CCN(C3=O)[C@@H](Cc3ccc(C(F)(F)F)cc3)C(=O)N(C)CC(=O)N[C@@H](CCc3ccc(Cl)c(Cl)c3)C(=O)N2C1 [PP1251]	10.2	AA (a compound having 20 or more is denoted as AA)	A (a compound having 10 or more and less than 20 is denoted as A)	0.18			
C#CCN1CC(=O)N(C)[C@H]2C/C=C\CCN(C2=O)[C@@H](Cc2ccc(C)cc2)C(=O)N(C)CC(=O)N[C@@H](CCc2cc(F)c(C(F)(F)F)c(F)c2)C(=O)N2C[C@H](OCC)C[C@H]2C(=O)NC2(CCC2)C(=O)N(C)[C@@H](C2CCCC2)C(=O)N(C)[C@H](C(=O)N(C)C)CC(=O)N(C)[C@@H](CCC)C(=O)N[C@@H](CC(C)C)C1=O [PP2536]	152				A (a compound having 10 or more and less than 20 is denoted as A)	B (a compound having 3 or more and less than 10 is denoted as B)	2.4
CCO[C@@H]1C[C@H]2C(=O)NC3(CCC3)C(=O)N(C)[C@@H](C(CC)CC)C(=O)N(C)[C@H](C(=O)N(C)C)CC(=O)N(C)[C@@H](COC)C(=O)N[C@@H]([C@@H](C)CC)C(=O)N(C)CC(=O)N(C)[C@H]3C/C=C\CCN(C3=O)[C@@H](Cc3ccc(C(F)(F)F)cc3)C(=O)N(C)CC(=O)N[C@@H](CCc3ccc(Cl)c(Cl)c3)C(=O)N2C1 [PP1221]	40.6	AA (a compound having 20 or more is denoted as AA)	A (a compound having 10 or more and less than 20 is denoted as A)	0.4			
CCO[C@@H]1C[C@H]2C(=O)NC3(CCC3)C(=O)N(C)[C@@H](C3CCCC3)C(=O)N(C)[C@H](C(=O)N3CCOCC3)CC(=O)N(C)[C@@H](CC3CCCCC3)C(=O)N[C@@H]([C@@H](C)CC)C(=O)N(C)CC(=O)N(C)[C@H]3C/C=C\CCN(C3=O)[C@@H](Cc3ccc(C)cc3)C(=O)N(C)CC(=O)N[C@@H](CCc3cc(F)c(C(F)(F)F)c(F)c3)C(=O)N2C1 [PP1420]	31.4	A (a compound having 10 or more and less than 20 is denoted as A)	A (a compound having 10 or more and less than 20 is denoted as A)	0.35			
CCO[C@@H]1C[C@H]2C(=O)NC3(CCC3)C(=O)N(C)[C@@H](C3CCCC3)C(=O)N(C)[C@H](C(=O)N3CCOCC3)CC(=O)N(C)[C@@H](CC)C(=O)N[C@@H]([C@@H](C)CC)C(=O)N(C)CC(=O)N(C)[C@H]3C[C@@H](C)[C@@H](C)CN(C3=O)[C@@H](Cc3ccc(C(F)(F)F)cc3)C(=O)N(C)CC(=O)N[C@@H](CCc3ccc(C(F)(F)F)c(Cl)c3)C(=O)N2C1 [PP1360]	4.9	A (a compound having 10 or more and less than 20 is denoted as A)	B (a compound having 3 or more and less than 10 is denoted as B)	0.055			
CCO[C@@H]1C[C@H]2C(=O)NC3(CCC3)C(=O)N(C)[C@@H](C(CC)CC)C(=O)N(C)[C@H](C(=O)N3CCOCC3)CC(=O)N(C)[C@@H](CC(C)C)C(=O)N[C@@H]([C@@H](C)CC)C(=O)N(C)CC(=O)N(C)[C@H]3C/C=C\CCN(C3=O)[C@@H](Cc3ccc(C(F)(F)F)cc3)C(=O)N(C)CC(=O)N[C@@H](CCc3cc(F)c(C(F)(F)F)c(F)c3)C(=O)N2C1 [PP1287]	49.7	AA (a compound having 20 or more is denoted as AA)	A (a compound having 10 or more and less than 20 is denoted as A)	0.56			
